# Measured values: EP3212201B1, “NUCLEOSIDE KINASE INHIBITORS” (BCI Pharma, priority 2014, dated 2016)
# Tests used:
# NEK1 = biological target: T1, NEK1 (Homo sapiens, UniProt Q96PY6); experiment: FRET-based coupled-enzyme protein kinase inhibition assay; format: biochemical; conditions: compound at 10 µM, 1% DMSO
# T1 sequence (Q96PY6 1-1258): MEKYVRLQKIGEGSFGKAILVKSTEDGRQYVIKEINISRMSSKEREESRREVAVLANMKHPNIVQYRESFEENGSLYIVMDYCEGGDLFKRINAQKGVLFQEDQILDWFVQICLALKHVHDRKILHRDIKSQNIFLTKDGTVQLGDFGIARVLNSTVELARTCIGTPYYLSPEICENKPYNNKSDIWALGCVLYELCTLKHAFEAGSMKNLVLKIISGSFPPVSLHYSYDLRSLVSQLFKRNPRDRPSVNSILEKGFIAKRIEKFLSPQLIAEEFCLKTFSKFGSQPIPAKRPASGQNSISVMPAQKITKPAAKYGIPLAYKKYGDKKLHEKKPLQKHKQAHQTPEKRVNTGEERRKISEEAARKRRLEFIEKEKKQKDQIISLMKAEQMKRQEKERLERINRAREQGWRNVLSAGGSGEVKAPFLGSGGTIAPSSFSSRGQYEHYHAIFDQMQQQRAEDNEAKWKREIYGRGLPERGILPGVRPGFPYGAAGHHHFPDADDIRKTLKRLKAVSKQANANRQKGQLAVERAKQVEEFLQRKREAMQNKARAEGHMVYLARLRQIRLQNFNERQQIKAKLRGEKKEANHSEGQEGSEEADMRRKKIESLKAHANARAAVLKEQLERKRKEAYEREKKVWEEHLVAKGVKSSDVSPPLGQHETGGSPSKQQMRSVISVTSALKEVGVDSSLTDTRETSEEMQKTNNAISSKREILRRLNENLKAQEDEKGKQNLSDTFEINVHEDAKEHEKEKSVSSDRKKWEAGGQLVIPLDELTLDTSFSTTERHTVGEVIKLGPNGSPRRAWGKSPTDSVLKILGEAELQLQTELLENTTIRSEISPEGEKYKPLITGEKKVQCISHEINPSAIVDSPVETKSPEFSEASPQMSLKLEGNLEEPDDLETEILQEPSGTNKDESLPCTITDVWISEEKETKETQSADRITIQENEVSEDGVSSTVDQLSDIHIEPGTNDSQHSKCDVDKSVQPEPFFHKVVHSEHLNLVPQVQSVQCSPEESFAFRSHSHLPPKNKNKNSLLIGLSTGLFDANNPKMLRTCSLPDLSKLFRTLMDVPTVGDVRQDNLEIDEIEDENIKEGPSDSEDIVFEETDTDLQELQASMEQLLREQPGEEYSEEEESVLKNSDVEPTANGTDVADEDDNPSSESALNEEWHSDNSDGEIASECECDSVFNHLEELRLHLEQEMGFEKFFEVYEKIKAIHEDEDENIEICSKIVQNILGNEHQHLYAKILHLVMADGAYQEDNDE
# How it was run: (§1)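 FRET peptide (coumarin donor, fluorescein acceptor) was phosphorylated by each kinase in 50 mM HEPES pH 7.5, 10 mM MgCl2, 1 mM EDTA, 0.01% BRIJ-35 for 60 min at room temperature. ATP was at apparent Km, compounds in 1% DMSO. Protease development reagent then cleaved non-phosphorylated peptide over 60 min.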
# PIM1 = PIM1 (Homo sapiens, UniProt P11309); experiment: as above; format: biochemical; conditions: compound at 10 µM, 1% DMSO
# Chain of PIM1 (P11309 whole entry, species assumed): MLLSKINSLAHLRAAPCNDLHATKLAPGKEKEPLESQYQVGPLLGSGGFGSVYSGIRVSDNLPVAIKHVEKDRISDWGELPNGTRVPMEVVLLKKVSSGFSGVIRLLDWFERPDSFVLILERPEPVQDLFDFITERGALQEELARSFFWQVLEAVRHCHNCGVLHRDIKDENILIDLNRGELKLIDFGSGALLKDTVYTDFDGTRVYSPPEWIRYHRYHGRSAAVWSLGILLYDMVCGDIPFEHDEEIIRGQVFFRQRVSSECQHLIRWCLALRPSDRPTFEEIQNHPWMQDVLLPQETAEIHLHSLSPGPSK
# How it was run: as §1
inhibition at 10 µM (NEK1) [%],inhibition at 10 µM (PIM1) [%],Compound
-4,-2,Nc1ncnc2c1ncn2[C@@H]1O[C@H](COC(=O)NCCCc2nc3ccccc3[nH]2)[C@@H](O)[C@H]1O [Compound C1]
-5,11,Nc1ncnc2c1ncn2[C@@H]1O[C@H](COC(=O)NC[C@H](O)CO)[C@@H](O)[C@H]1O [Compound C8]
4,1,Nc1ncnc2c1ncn2[C@@H]1O[C@H](COC(=O)N2CCN(Cc3ccccc3)CC2CO)[C@@H](O)[C@H]1O (some centres unmarked) [Compound C13]
-5,7,Nc1ncnc2c1ncn2[C@@H]1O[C@H](COC(=O)N2CCC(Cc3ccc(F)cc3)C2)[C@@H](O)[C@H]1O (some centres unmarked) [Compound C66]
1,0,CN(C)CCNC(=O)OC[C@H]1O[C@@H](n2cnc3c(N)ncnc32)[C@H](O)[C@@H]1O [Compound C85]
-7,-4,Nc1ncnc2c1ncn2[C@@H]1O[C@H](COC(=O)N2CCN(C(=O)N3CCOCC3)CC2)[C@@H](O)[C@H]1O [Compound C89]
0,6,CS(=O)(=O)N1CC2(CCN(C(=O)OC[C@H]3O[C@@H](n4cnc5c(N)ncnc54)[C@H](O)[C@@H]3O)CC2)c2ccccc21 [Compound C98]
-3,-1,Nc1ncnc2c1ncn2[C@@H]1O[C@H](COC(=O)N2CCS(=O)(=O)CC2)[C@@H](O)[C@H]1O [Compound C100]

# More lines, now with the values behind:
Compound,inhibition at 10 µM (NEK1) [%],inhibition at 10 µM (PIM1) [%]
C[C@@H](NC(=O)OC[C@H]1O[C@@H](n2cnc3c(N)ncnc32)[C@H](O)[C@@H]1O)c1ccc(Cl)cc1 [Compound C4],4,-8
Nc1ncnc2c1ncn2[C@@H]1O[C@H](COC(=O)N2CCC[C@H]2CO)[C@@H](O)[C@H]1O [Compound C9],-3,3
Nc1ncnc2c1ncn2[C@@H]1O[C@H](COC(=O)N[C@@H]2CCN(Cc3ccccc3)C2)[C@@H](O)[C@H]1O [Compound C10],11,1
CC(C)N1CCC(NC(=O)OC[C@H]2O[C@@H](n3cnc4c(N)ncnc43)[C@H](O)[C@@H]2O)CC1 [Compound C19],-2,-7
Nc1ncnc2c1ncn2[C@@H]1O[C@H](COC(=O)NCCN2CCCC2=O)[C@@H](O)[C@H]1O [Compound C22],-2,-6
Nc1ncnc2c1ncn2[C@@H]1O[C@H](COC(=O)N2CCN(CCc3ccccc3)CC2)[C@@H](O)[C@H]1O [Compound C26],-7,-5
CN1CCN(CCNC(=O)OC[C@H]2O[C@@H](n3cnc4c(N)ncnc43)[C@H](O)[C@@H]2O)CC1 [Compound C46],7,8
N#CCCN1CCN(C(=O)OC[C@H]2O[C@@H](n3cnc4c(N)ncnc43)[C@H](O)[C@@H]2O)CC1 [Compound C70],6,5
